In US9029337B2, “Modulation of factor 7 expression” (Isis Pharmaceuticals, Inc., priority 2007, dated 2015):
Strand notation (5' to 3'): a small letter for the sugar, then the base; units joined by * are phosphorothioate-linked, units joined directly phosphodiester-linked; [ ] holds rarer units or linkages, { } end groups; capitals alone tell only the bases. e = 2'-O-(2-methoxyethyl) (MOE); [5mC] = 5-methylcytosine; d = 2'-deoxy (DNA)

system: human Factor 7 mRNA; experiment: Antisense inhibition of human Factor 7 with short (14-mer) oligonucleotides in HepB3 cells, electroporation 1,000 nM; type: cell-based; conditions: electroporation, 1,000 nM antisense oligonucleotide, approximately 24 hours, Factor 7 mRNA relative to untreated control cells
How it was run: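 14-mer 2-10-2 MOE gapmers (full phosphorothioate, 5-methyl-C) electroporated at 1,000 nM into HepB3 cells at 20,000 cells/well. After ~24 h, Factor 7 mRNA by real-time RT-PCR, normalized to RiboGreen total RNA. Reported as % inhibition relative to untreated cells.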

Row | Substance | % Inhibition
1 | 435497 (antisense eG*eG*dG*dA*dG*dA*d[5mC]*d[5mC]*d[5mC]*dT*dG*dG*eT*eG) [compound 435497] | 27%
2 | 435479 (antisense e[5mC]*eA*d[5mC]*dT*d[5mC]*d[5mC]*d[5mC]*d[5mC]*dT*dT*dT*dG*eG*eG) [compound 435479] | 9%
3 | 435640 (antisense eT*eG*dT*dA*dA*dG*dA*dA*dA*dT*d[5mC]*d[5mC]*eA*eG) [compound 435640] | 2%
4 | 435644 (antisense eT*eG*dG*dT*d[5mC]*d[5mC]*dT*dT*dG*d[5mC]*dA*dG*eG*eA) [compound 435644] | 30%
5 | 435638 (antisense eA*eG*d[5mC]*d[5mC]*d[5mC]*dT*dG*dA*dA*dG*d[5mC]*d[5mC]*e[5mC]*eA) [compound 435638] | 55%
6 | 435808 (antisense e[5mC]*eT*d[5mC]*dT*dG*dG*dA*d[5mC]*dA*d[5mC]*d[5mC]*dG*eG*eG) [compound 435808] | 66%
7 | 435747 (antisense eA*eT*dA*dT*d[5mC]*dA*dT*dT*dG*dA*d[5mC]*dA*eA*eG) [compound 435747] | 0%
8 | 435738 (antisense e[5mC]*eA*dG*dA*dG*dG*dA*dT*dG*dA*dG*d[5mC]*eA*e[5mC]) [compound 435738] | 16%
9 | 435840 (antisense eG*eG*dG*d[5mC]*d[5mC]*d[5mC]*dG*d[5mC]*d[5mC]*dA*d[5mC]*dT*eG*eG) [compound 435840] | 0%
10 | 435664 (antisense eT*eT*dT*dT*dT*d[5mC]*d[5mC]*dA*d[5mC]*dA*dT*dG*eG*eA) [compound 435664] | 4%
11 | 435714 (antisense eA*e[5mC]*dT*d[5mC]*dG*dA*dT*dG*dT*dA*d[5mC]*dT*eG*eG) [compound 435714] | 3%
12 | 435821 (antisense eA*eG*dT*d[5mC]*dA*dG*dT*dA*d[5mC]*dA*dG*dA*e[5mC]*eA) [compound 435821] | 0%
13 | 435762 (antisense e[5mC]*eA*dG*dG*dT*dG*dT*dT*dA*dA*dG*dG*eT*eG) [compound 435762] | 0%
14 | 435753 (antisense eA*eA*dG*dA*dG*dT*dG*d[5mC]*dA*dG*d[5mC]*dT*eT*eG) [compound 435753] | 9%
15 | 435496 (antisense eG*eG*dA*dG*dA*d[5mC]*d[5mC]*d[5mC]*dT*dG*dG*dT*eG*eT) [compound 435496] | 47%
16 | 435654 (antisense eG*e[5mC]*d[5mC]*dG*dT*dT*d[5mC]*dT*d[5mC]*dG*dT*dT*e[5mC]*eA) [compound 435654] | 71%
17 | 435795 (antisense eA*e[5mC]*dA*d[5mC]*d[5mC]*d[5mC]*dG*dA*dG*dG*dT*dT*e[5mC]*eA) [compound 435795] | 66%
18 | 435682 (antisense eG*eG*dA*dT*dG*dA*dT*dG*dA*d[5mC]*d[5mC]*dT*eG*e[5mC]) [compound 435682] | 36%
19 | 435661 (antisense eG*eG*dA*d[5mC]*dA*d[5mC]*d[5mC]*d[5mC]*d[5mC]*dG*dT*d[5mC]*eT*eG) [compound 435661] | 18%
20 | 435731 (antisense eG*eT*dG*dA*dG*dA*dG*d[5mC]*dT*dA*dA*dA*e[5mC]*eA) [compound 435731] | 11%

Row | Substance | % Inhibition
21 | 435652 (antisense e[5mC]*eT*dG*dG*dT*d[5mC]*dA*dT*d[5mC]*d[5mC]*dT*dT*eG*eT) [compound 435652] | 48%
22 | 435767 (antisense e[5mC]*eA*d[5mC]*d[5mC]*dA*dA*dG*dT*dT*dT*dA*dT*eG*eG) [compound 435767] | 0%
23 | 435749 (antisense e[5mC]*eA*dG*d[5mC]*d[5mC]*dA*dG*dG*dG*d[5mC]*d[5mC]*dT*eG*eG) [compound 435749] | 29%
24 | 435793 (antisense eT*eG*d[5mC]*dA*dG*dT*dA*dG*d[5mC]*dA*dG*dA*eT*eG) [compound 435793] | 27%
25 | 435660 (antisense e[5mC]*e[5mC]*dG*dT*d[5mC]*dT*dG*d[5mC]*d[5mC]*dA*dG*d[5mC]*eA*eG) [compound 435660] | 58%
26 | 435492 (antisense eA*e[5mC]*d[5mC]*d[5mC]*dT*dG*dG*dT*dG*dT*dA*d[5mC]*eA*e[5mC]) [compound 435492] | 45%
27 | 435786 (antisense eA*eG*dG*dT*dG*dA*d[5mC]*d[5mC]*d[5mC]*dG*dT*dG*eA*eG) [compound 435786] | 68%
28 | 435777 (antisense e[5mC]*eT*dG*dA*dG*dG*dA*dT*dG*d[5mC]*dA*dG*eG*e[5mC]) [compound 435777] | 53%
29 | 435826 (antisense eA*eA*dG*dT*dG*dG*d[5mC]*dT*dG*dG*d[5mC]*dT*eG*eA) [compound 435826] | 27%
30 | 435851 (antisense eA*e[5mC]*dA*dG*dG*d[5mC]*d[5mC]*dA*dG*dG*d[5mC]*dT*eG*eG) [compound 435851] | 0%
31 | 435666 (antisense eG*eG*dT*dT*dT*dG*d[5mC]*dT*dG*dG*d[5mC]*dA*eT*eT) [compound 435666] | 71%
32 | 435770 (antisense e[5mC]*eT*d[5mC]*dT*dG*dA*dG*dA*dG*dG*d[5mC]*d[5mC]*e[5mC]*e[5mC]) [compound 435770] | 81%
33 | 435776 (antisense eG*eG*dG*dA*d[5mC]*dA*d[5mC]*dT*d[5mC]*dA*d[5mC]*dA*e[5mC]*eT) [compound 435776] | 51%
34 | 435817 (antisense e[5mC]*eT*dG*dA*dG*d[5mC]*dT*dT*dG*dG*d[5mC]*dA*e[5mC]*e[5mC]) [compound 435817] | 39%
35 | 435679 (antisense e[5mC]*eG*d[5mC]*dT*dG*dA*dG*dG*dT*d[5mC]*dG*dT*eG*e[5mC]) [compound 435679] | 62%
36 | 435651 (antisense eA*e[5mC]*dA*dG*dT*dT*d[5mC]*d[5mC]*dG*dG*d[5mC]*d[5mC]*e[5mC]*eT) [compound 435651] | 71%
37 | 435825 (antisense e[5mC]*eT*dG*dG*dT*dT*dT*dT*dG*dG*dA*dG*eG*eA) [compound 435825] | 0%
38 | 435733 (antisense e[5mC]*eT*dG*dA*dA*dT*dT*dG*dT*d[5mC]*dT*dG*eA*eA) [compound 435733] | 5%
39 | 435769 (antisense eT*eT*d[5mC]*dT*dT*dT*dG*dA*dA*dA*dA*dA*eT*eA) [compound 435769] | 0%
40 | 435812 (antisense eG*e[5mC]*dT*dG*dA*dG*d[5mC]*dA*dG*dA*dG*dA*eT*e[5mC]) [compound 435812] | 35%

Row | Substance | % Inhibition
41 | 435501 (antisense eT*eA*d[5mC]*dT*dG*dG*dG*dA*dG*dA*d[5mC]*d[5mC]*e[5mC]*eT) [compound 435501] | 51%
42 | 435771 (antisense eG*eT*d[5mC]*dA*dT*dA*dA*dG*dG*d[5mC]*d[5mC]*dA*eT*eG) [compound 435771] | 13%
43 | 435824 (antisense e[5mC]*e[5mC]*dT*dA*dA*dA*dG*dA*dT*dG*dA*dA*eT*e[5mC]) [compound 435824] | 21%
44 | 435670 (antisense e[5mC]*eA*dA*d[5mC]*dA*dG*dG*dA*d[5mC]*d[5mC]*dT*dG*e[5mC]*e[5mC]) [compound 435670] | 47%
45 | 435799 (antisense e[5mC]*eT*dG*dG*dT*d[5mC]*d[5mC]*d[5mC]*d[5mC]*dA*dT*d[5mC]*eT*eG) [compound 435799] | 33%
46 | 435787 (antisense eG*eA*dG*dT*dG*dT*dG*dA*dG*dG*d[5mC]*dT*eT*e[5mC]) [compound 435787] | 34%
47 | 435735 (antisense eT*eG*dG*dT*dG*dA*dT*dG*d[5mC]*dT*dT*d[5mC]*eT*eG) [compound 435735] | 81%
48 | 435693 (antisense eG*eG*d[5mC]*dA*dG*dT*d[5mC]*d[5mC]*dT*dG*dG*dG*eT*e[5mC]) [compound 435693] | 43%
49 | 435725 (antisense eG*e[5mC]*dA*dG*d[5mC]*d[5mC]*dT*dG*dA*dG*dG*d[5mC]*e[5mC]*eA) [compound 435725] | 79%
50 | 435832 (antisense eT*eG*d[5mC]*dT*d[5mC]*dA*dG*dA*d[5mC]*d[5mC]*dT*dG*eG*e[5mC]) [compound 435832] | 70%
51 | 435781 (antisense eA*e[5mC]*d[5mC]*dA*d[5mC]*dG*d[5mC]*dG*dG*dT*dG*dG*eT*eG) [compound 435781] | 0%
52 | 435818 (antisense eG*eT*d[5mC]*dA*dT*d[5mC]*d[5mC]*dT*dT*dG*dT*d[5mC]*eT*eG) [compound 435818] | 43%
53 | 435672 (antisense eA*e[5mC]*d[5mC]*d[5mC]*dA*dG*dA*dT*dG*dG*dT*dG*eT*eT) [compound 435672] | 12%
54 | 435816 (antisense eT*e[5mC]*d[5mC]*dA*dA*dA*dG*dG*dA*d[5mC]*dA*dA*eG*eG) [compound 435816] | 4%
55 | 435729 (antisense eA*e[5mC]*dA*dG*d[5mC]*dA*d[5mC]*dA*d[5mC]*dA*dT*dG*eG*eA) [compound 435729] | 30%
56 | 435800 (antisense eG*eG*dA*d[5mC]*d[5mC]*d[5mC]*dA*dA*dA*dG*dT*dG*eG*eG) [compound 435800] | 0%
57 | 435643 (antisense e[5mC]*eT*dT*dG*d[5mC]*dA*dG*dG*dA*dG*d[5mC]*d[5mC]*e[5mC]*e[5mC]) [compound 435643] | 51%
58 | 435750 (antisense e[5mC]*eA*d[5mC]*dT*dG*d[5mC]*dA*dG*d[5mC]*d[5mC]*dA*dG*eG*eG) [compound 435750] | 14%
59 | 435763 (antisense eA*eG*dG*dA*dG*dA*dA*dA*dG*dG*dT*d[5mC]*eA*eG) [compound 435763] | 2%
